Experimental data taken from patent publication US9670227B2, “Thienopyrimidine derivatives, a process for their preparation and pharmaceutical compositions containing them” (LES LABORATOIRES SERVIER, priority 2013, dated 2017).
Where two headings read alike, the source gives them in different places.

Legend:
[1] = system: H929 multiple myeloma tumour line; assay: In vitro cytotoxicity, Microculture Tetrazolium Assay; format: cell-based; details: read-out: IC50 (μM) MTT H929
Protocol: The cytotoxicity studies were carried out on the H929 multiple myeloma tumour line.
The cells are distributed onto microplates and exposed to the test compounds for 48 hours.

Mcl-1 protein = Mcl-1 protein (UniProtKB primary accession number: Q07820) (Homo sapiens, UniProt Q07820); assay: Inhibition of Mcl-1 by fluorescence polarisation, Method 1; format: binding; details: for IC50: read-out: IC50 (M) Mcl-1 FP
Procedure, shortened: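 FP competition, 11-point compound titration in 5% final DMSO; protein and labelled probe at 5 nM and 1 nM final in HEPES/NaCl/Tween 20 buffer, pH 7.4.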

[2] = Homo sapiens, NCI-H929, 48 h, H929 cells, 48 hours exposure, MTT
[3] = fluorescence polarisation test, Method 2 values are underlined in the patent (underlining not visible here)
[4] = H929 cells, 48 hours exposure, MTT
[5] = fluorescence polarisation test, Method 1, or Method 2 where the value is underlined (underlining not visible)

Sequence of Mcl-1 protein (Q07820 whole entry): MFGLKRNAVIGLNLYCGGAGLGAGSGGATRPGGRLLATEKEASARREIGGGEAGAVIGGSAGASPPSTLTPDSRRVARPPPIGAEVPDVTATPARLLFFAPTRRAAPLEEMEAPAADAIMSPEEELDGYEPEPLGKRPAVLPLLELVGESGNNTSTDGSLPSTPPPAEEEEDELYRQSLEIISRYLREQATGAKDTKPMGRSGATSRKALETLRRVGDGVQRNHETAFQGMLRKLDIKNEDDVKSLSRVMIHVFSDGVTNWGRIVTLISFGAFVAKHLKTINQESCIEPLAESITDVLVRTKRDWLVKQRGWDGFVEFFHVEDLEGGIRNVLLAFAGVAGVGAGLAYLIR

Compound	IC50 (Mcl-1 protein; [3]) [M]	IC50 (Mcl-1 protein; [5]) [M]	also measured
CCCCCn1nccc1C(C)Oc1ccccc1CC(Oc1ncnc2sc(-c3ccc(F)cc3)c(-c3ccc(OCCN4CCN(C)CC4)c(Cl)c3C)c12)C(=O)O (single isomer, unassigned) [Example 5, (2R)-2-{[(5Sa)-5-{3-chloro-2-methyl-4-[2-(4-methylpiperazin-1-yl)ethoxy]phenyl}-6-(4-fluorophenyl)thieno[2,3-d]pyrimidin-4-yl]oxy}-3-{2-[(1R or S)-1-(1-pentyl-1H-pyrazol-5-yl)ethoxy]phenyl}propanoic acid]	6.2e-09	–	IC50 [1, 2]: 0.418 µM
CCCCCn1nccc1C(C)Oc1ccccc1CC(Oc1ncnc2sc(-c3ccc(F)cc3)c(-c3ccc(OCCN4CCN(C)CC4)c(Cl)c3C)c12)C(=O)O (single isomer, unassigned) [Example 6, (2R)-2-{[(5Sa)-5-{3-chloro-2-methyl-4-[2-(4-methylpiperazin-1-yl)ethoxy]phenyl}-6-(4-fluorophenyl)thieno[2,3-d]pyrimidin-4-yl]oxy}-3-{2-[(1S or R)-1-(1-pentyl-1H-pyrazol-5-yl)ethoxy]phenyl}propanoic acid]	4.9e-09	–	IC50 [1, 4]: 0.332 µM
Cc1c(-c2c(-c3ccc(F)cc3)sc3ncnc(OC(Cc4ccccc4OCc4cnccn4)C(=O)O)c23)ccc(OC2CCCN(C)C2)c1Cl (single isomer, unassigned) [Example 141, (2R)-2-{[(5Sa)-5-{3-chloro-2-methyl-4-[((3S or R)-1-methylpiperidin-3-yl)oxy]phenyl}-6-(4-fluorophenyl)thieno[2,3-d]pyrimidin-4-yl]oxy}-3-[2-(pyrazin-2-ylmethoxy)phenyl]propanoic acid]	3.1e-08	–	IC50 [1, 4]: 0.27 µM
Cc1c(-c2c(-c3ccc(F)cc3)sc3ncnc(OC(Cc4ccccc4OCc4cnccn4)C(=O)O)c23)ccc(OC2CCCN(C)C2)c1Cl (single isomer, unassigned) [Example 142, (2R)-2-{[(5Sa)-5-{3-chloro-2-methyl-4-[((3R or S)-1-methylpiperidin-3-yl)oxy]phenyl}-6-(4-fluorophenyl)thieno[2,3-d]pyrimidin-4-yl]oxy}-3-[2-(pyrazin-2-ylmethoxy)phenyl]propanoic acid]	4.2e-08	–	IC50 [1, 4]: 1.67 µM
COc1ccccc1CC(Oc1ncnc2sc(-c3ccco3)c(-c3ccc(OC4CCCN(C)C4)c(Cl)c3C)c12)C(=O)O (single isomer, unassigned) [Example 301, (2R)-2-{[(5Sa)-5-{3-chloro-2-methyl-4-[((3R or S)-1-methylpiperidin-3-yl)oxy]phenyl}-6-(furan-2-yl)thieno[2,3-d]pyrimidin-4-yl]oxy}-3-(2-methoxyphenyl)propanoic acid]	1.2e-08	–	IC50 [1, 4]: 0.108 µM
COc1ccccc1CC(Oc1ncnc2sc(-c3ccco3)c(-c3ccc(OC4CCCN(C)C4)c(Cl)c3C)c12)C(=O)O (single isomer, unassigned) [Example 302, (2R)-2-{[(5Sa)-5-{3-chloro-2-methyl-4-[((3S or R)-1-methylpiperidin-3-yl)oxy]phenyl}-6-(furan-2-yl)thieno[2,3-d]pyrimidin-4-yl]oxy}-3-(2-methoxyphenyl)propanoic acid]	1.4e-08	–	IC50 [1, 4]: 1.59 µM
COc1ccccc1CC(Oc1ncnc2sc(-c3ccco3)c(-c3ccc(OC4CCNC4)c(Cl)c3C)c12)C(=O)O (single isomer, unassigned) [Example 305, (2R)-2-({(5Sa)-5-[3-chloro-2-methyl-4-((3S or R)-pyrrolidin-3-yloxy)phenyl]-6-(furan-2-yl)thieno[2,3-d]pyrimidin-4-yl}oxy)-3-(2-methoxyphenyl) propanoic acid]	6.9e-08	–	IC50 [1, 2]: 1.64 µM
Cc1c(-c2c(-c3ccc(F)o3)sc3ncnc(OC(Cc4ccccc4OCc4ccnn4CC(F)(F)F)C(=O)O)c23)ccc(OCCN2CCN(C)CC2)c1Cl [Example 185, (2R)-2-{[(5Sa)-5-{3-chloro-2-methyl-4-[2-(4-methylpiperazin-1-yl)ethoxy]phenyl}-6-(5-fluorofuran-2-yl)thieno[2,3-d]pyrimidin-4-yl]oxy}-3-(2-{[1-(2,2,2-trifluoroethyl)-1H-pyrazol-5-yl]methoxy}phenyl)propanoic acid]	–	–	IC50 ([1]; Homo sapiens, NCI-H929, 48 h): 0.012 µM
Cc1c(-c2c(-c3ccco3)sc3ncnc(OC(Cc4ccccc4OCc4ccnn4CC(F)(F)F)C(=O)O)c23)ccc(OCCN2CCN(C)CC2)c1Cl [Example 265, (2R)-2-{[(5Sa)-5-{3-chloro-2-methyl-4-[2-(4-methylpiperazin-1-yl)ethoxy]phenyl}-6-(furan-2-yl)thieno[2,3-d]pyrimidin-4-yl]oxy}-3-(2-{[1-(2,2,2-trifluoroethyl)-1H-pyrazol-5-yl]methoxy}phenyl)propanoic acid]	–	–	IC50 [1, 2]: 0.016 µM
CCOC(=O)[C@@H](Cc1ccccc1OCc1ccnc(-c2ccccc2CO)n1)Oc1ncnc2sc(-c3ccc(F)cc3)c(-c3ccc(OCCN(C)C)c(Cl)c3C)c12 [Example 857, ethyl (2R)-2-{[(5Sa)-5-{3-chloro-4-[2-(dimethylamino)ethoxy]-2-methylphenyl}-6-(4-fluorophenyl)thieno[2,3-d]pyrimidin-4-yl]oxy}-3-[2-({2-[2-(hydroxymethyl)phenyl]pyrimidin-4-yl}methoxy)phenyl]propanoate]	–	–	percentage fluorescence polarisation inhibition (Mcl-1 FP), partial inhibitors (Mcl-1 protein; test compound at 10 uM, Method 1, or Method 2 where the value is underlined (underlining not visible)): 77.85% @ 10 uM
(2R)-2-{[(5Sa)-5-(3-chloro-2-methylphenyl)-6-ethylthieno[2,3-d]pyrimidin-4-yl]oxy}-3-phenylpropanoic acid and (2S)-2-{[(5Ra)-5-(3-chloro-2-methylphenyl)-6-ethylthieno[2,3-d]pyrimidin-4-yl]oxy}-3-phenylpropanoic acid [Example 449]	–	–	IC50 (Mcl-1 protein; fluorescence polarisation, Method 1, or Method 2): 2.8e-08 M

Now from value to compound, other results behind:

IC50 (Mcl-1 protein; [3]) [M]	IC50 (Mcl-1 protein; [5]) [M]	Compound	also measured
–	1.72e-07	Cc1c(-c2c(-c3ccc(F)cc3)sc3ncnc(OC(Cc4ccccc4OCc4ccnc(-c5ccccc5F)n4)C(=O)OCOC(=O)C(C)(C)C)c23)ccc(OCCN2CCN(C)CC2)c1Cl [Example 854, {[(2R)-2-{[(5Sa)-5-{3-chloro-2-methyl-4-[2-(4-methylpiperazin-1-yl)ethoxy]phenyl}-6-(4-fluorophenyl)thieno[2,3-d]pyrimidin-4-yl]oxy}-3-(2-{[2-(2-fluorophenyl)pyrimidin-4-yl]methoxy}phenyl)propanoyl]oxy}methyl 2,2-dimethylpropanoate]	–
–	9.79e-07	CCOC(=O)C(Cc1ccccc1OCc1ccnc(-c2ccccc2CO)n1)Oc1ncnc2sc(-c3ccc(F)cc3)c(-c3ccc(OCCN4CCN(C)CC4)c(Cl)c3C)c12 [Example 856, ethyl (2R)-2-{[(5Sa)-5-{3-chloro-2-methyl-4-[2-(4-methylpiperazin-1-yl)ethoxy]phenyl}-6-(4-fluorophenyl)thieno[2,3-d]pyrimidin-4-yl]oxy}-3-[2-({2-[2-(hydroxymethyl)phenyl]pyrimidin-4-yl}methoxy)phenyl]propanoate]	–
–	2.11e-07	COc1ccccc1-c1nccc(COc2ccccc2CC(Oc2ncnc3sc(-c4ccc(F)cc4)c(-c4ccc(OCCN5CCN(C)CC5)c(Cl)c4C)c23)C(=O)OC(C)OC(C)=O)n1 [Example 858, 1-(acetyloxy)ethyl (2R)-2-{[(5Sa)-5-{3-chloro-2-methyl-4-[2-(4-methylpiperazin-1-yl)ethoxy]phenyl}-6-(4-fluorophenyl)thieno[2,3-d]pyrimidin-4-yl]oxy}-3-(2-{[2-(2-methoxyphenyl)pyrimidin-4-yl]methoxy}phenyl)propanoate]	–
–	1.13e-06	COc1ccccc1-c1nccc(COc2ccccc2CC(Oc2ncnc3sc(-c4ccc(F)cc4)c(-c4ccc(OCCN5CCN(C)CC5)c(Cl)c4C)c23)C(=O)OC(C)OC(=O)C(C)(C)C)n1 [Example 859, 1-{[(2R)-2-{[(5Sa)-5-{3-chloro-2-methyl-4-[2-(4-methylpiperazin-1-yl)ethoxy]phenyl}-6-(4-fluorophenyl)thieno[2,3-d]pyrimidin-4-yl]oxy}-3-(2-{[2-(2-methoxyphenyl)pyrimidin-4-yl]methoxy}phenyl)propanoyl]oxy}ethyl 2,2-dimethylpropanoate]	–
–	2.04e-07	CCC(=O)OC(C)OC(=O)C(Cc1ccccc1OCc1ccnc(-c2ccccc2OC)n1)Oc1ncnc2sc(-c3ccc(F)cc3)c(-c3ccc(OCCN4CCN(C)CC4)c(Cl)c3C)c12 [Example 860, 1-(propanoyloxy)ethyl (2R)-2-{[(5Sa)-5-{3-chloro-2-methyl-4-[2-(4-methylpiperazin-1-yl)ethoxy]phenyl}-6-(4-fluorophenyl)thieno[2,3-d]pyrimidin-4-yl]oxy}-3-(2-{[2-(2-methoxyphenyl)pyrimidin-4-yl]methoxy}phenyl)propanoate]	–
–	5.77e-07	COc1ccccc1-c1nccc(COc2ccccc2CC(Oc2ncnc3sc(-c4ccc(F)cc4)c(-c4ccc(OCCN5CCN(C)CC5)c(Cl)c4C)c23)C(=O)OC(C)OC(=O)C(C)C)n1 [Example 861, 1-[(2-methylpropanoyl)oxy]ethyl (2R)-2-{[(5Sa)-5-{3-chloro-2-methyl-4-[2-(4-methylpiperazin-1-yl)ethoxy]phenyl}-6-(4-fluorophenyl)thieno[2,3-d]pyrimidin-4-yl]oxy}-3-(2-{[2-(2-methoxyphenyl)pyrimidin-4-yl]methoxy}phenyl)propanoate]	–
–	2.7e-08	COCC(=O)OC(C)OC(=O)[C@@H](Cc1ccccc1OCc1ccnc(-c2ccccc2OC)n1)Oc1ncnc2sc(-c3ccc(F)cc3)c(-c3ccc(OCCN4CCN(C)CC4)c(Cl)c3C)c12 (stereo partly drawn) [Example 864, 1-[(methoxyacetyl)oxy]ethyl (2R)-2-{[5-{3-chloro-2-methyl-4-[2-(4-methylpiperazin-1-yl)ethoxy]phenyl}-6-(4-fluorophenyl)thieno[2,3-d]pyrimidin-4-yl]oxy}-3-(2-{[2-(2-methoxyphenyl)pyrimidin-4-yl]methoxy}phenyl)propanoate]	–
